From patent publication US20070037739A1, “Compounds useful in coating stents to prevent and treat stenosis and restenosis” (Medlogics Device Corporation, priority 2003, published 2007)
≈ marks a conversion by molar mass, not a printed value. Blank lines part the entries; values can stand above or below the compound they belong to. Peptide text beside a SMILES is read from it.

Tests used:
U937 cells = experiment: TNF-induced DNA fragmentation in U937 cells; format: cell-based
Source text: TNF-α-induced apoptosis in U937 monocytic leukemia cells can be used to evaluate the mechanism of apoptosis and its pharmacological manipulation in various diseases, including inflammation. This can be measured by internucleosomal DNA cleavage (Wright, S. C.; Kumar, P.; Tam, A. W.; Shen, N.; Varma, M.; Larrick, J. W. Apoptosis and DNA fragmentation precede TNF-induced cytolysis in U937 cells. J. Cell. Biochem., 1992, 48, 344-355). It has been shown that signal transduction pathways leading to apoptosis depend on the generation of free radicals (Buttke, T. M.; Sandstrom, P. A. Oxidative stress as a mediator of apoptosis. Immunol. Today, 1994, 15, 7-10) and alterations in the intracellular redox status through depletion of […] glutathione (GSH) (Ghibelli, L.; Coppola, S.; Rotilio, G.; Lafavia, E.; Maresca, V.; Ciriolo, M. R. Nonoxidative loss of gluthione in apoptosis via GSH extrusion. Biochem. Biophys. Res. Comm. 1995, 216, 313-320; van den Dobbelsteen, D. J.; Stefen, C.; Nobel, I.; Schlegel, J.; Cotgreave, I. A; Orrenius, S.; Slater, A. R. G. Rapid and specific efflux of reduced glutathione during apoptosis induced by anti-Fas/APO-1 antibody. J. Cell. Biochem., 1996, 271, 15420-15427).

[1] = Balloon-induced intimal injury (restenosis); format: in vivo; settings: DAA-1 treated animals
Source text: Following balloon-induced […] intimal injury, rats were give daily intravenous saline or DAA-I at 15, 30 or 45 pmol/kg×14d.

neutrophils [2] = settings: PMA- and zymosan-stimulated neutrophils, healthy human volunteers; cited from earlier work
human cartilage = settings: in vitro; cited from earlier work
[3] = cited from earlier work
[4] = injected, 400 mg/kg; cited from earlier work
[5] = test system: peripheral blood mononuclear cells (PBMNC); settings: 100 μg/ml; mycobacterial 60 kDa heat shock protein 5 μg/ml; six RA patients; cited from earlier work
NADPH oxidase = molecular target: T1, NADPH oxidase (Homo sapiens, UniProt P04839); settings: read-out: IC50 to inhibit NADPH oxidase activity; cited from earlier work
T1 sequence (P04839 2-570 limits assumed): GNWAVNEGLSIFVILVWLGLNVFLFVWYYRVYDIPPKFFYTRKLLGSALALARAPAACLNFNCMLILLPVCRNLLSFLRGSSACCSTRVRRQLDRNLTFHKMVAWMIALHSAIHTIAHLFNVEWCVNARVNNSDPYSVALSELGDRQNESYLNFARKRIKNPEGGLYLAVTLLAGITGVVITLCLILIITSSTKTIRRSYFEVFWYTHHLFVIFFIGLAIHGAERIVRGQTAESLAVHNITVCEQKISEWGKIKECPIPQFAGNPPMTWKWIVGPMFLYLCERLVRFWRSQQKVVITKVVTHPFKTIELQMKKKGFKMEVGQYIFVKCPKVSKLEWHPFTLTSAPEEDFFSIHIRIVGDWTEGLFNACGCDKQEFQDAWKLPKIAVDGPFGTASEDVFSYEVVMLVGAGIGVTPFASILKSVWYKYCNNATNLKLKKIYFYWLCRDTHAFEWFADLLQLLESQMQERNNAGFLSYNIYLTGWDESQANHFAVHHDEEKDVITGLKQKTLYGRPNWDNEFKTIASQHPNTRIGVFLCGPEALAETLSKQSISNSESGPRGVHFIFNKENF

PBMNC = settings: LPS- and PG-stimulated PBMNC, healthy human donors; cited from earlier work
J-774A.1 cells = settings: cited from earlier work
neutrophils [6] = settings: PMA-stimulated rat neutrophils; cited from earlier work
[7] = cited from earlier work; remark: listed apart in the source
peritoneal macrophages = settings: cited from earlier work
[8] = 12 mg/d through inhalation for four days; cited from earlier work
pulmonary macrophages = settings: cited from earlier work

Structure (SMILES): COc1cc(C(C)=O)ccc1OC(C)=O [Compound 1, 4-Acetoxy-3-methoxyacetophenone]
IC50 (μg/ml), protective effect against TNF-induced DNA fragmentation (U937 cells): 43 µg/mL (≈ 207 µM)
potency compared with apocynin (from IC50 values) (U937 cells): more potent than apocynin

Structure (SMILES): CC[C@H](C)[C@H](NC(=O)[C@H](Cc1ccc(O)cc1)NC(=O)[C@@H](NC(=O)[C@@H](N)CCCNC(=N)N)C(C)C)C(=O)N[C@@H](Cc1c[nH]cn1)C(=O)N1CCC[C@H]1C(=O)N[C@@H](Cc1ccccc1)C(=O)N[C@@H](Cc1c[nH]cn1)C(=O)N[C@@H](CC(C)C)C(=O)O [DAA-I, Arg-Val-Tyr-IIe-His-pro-Phe-His-Leu] (H-RVYIHPFHL-OH)
toxicity [1]: no appreciable toxicity was detected

Structure (SMILES): COc1cc(C(C)=O)ccc1O [apocynin]
concentration inhibiting ROS production by 50% (neutrophils [2]): 4 µg/mL
cartilage destruction and adverse effects on cartilage (human cartilage): can counteract human RA-inflammation-mediated cartilage destruction without having adverse effects on human cartilage
decrease of glutathione levels induced by ozone exposure ([3]; 5 mg/kg orally, pretreatment): almost completed inhibited
mean redox value (glutathione) ([3]; apocynin pretreatment, air 15.4%, ozone 32.0%): 18.3%
obvious effects on the mice [4]: no obvious effects
inhibition of production of IL-1 [5]: greater than 50%
inhibition of production of TNF-α [5]: greater than 50%
IC50 (NADPH oxidase): 9.6 µM
TNF-α release (PBMNC): dose-dependently inhibited
release of superoxide to the medium (J-774A.1 cells; 100 μg/ml, cells+LDL+Cu2+ or cells+PMA): completely blocked
macrophage-released superoxides, apocynin alone (J-774A.1 cells; non-activated cells): 0.2 nmol superoxide/10^6 cells
production of ROS (neutrophils [6]): competitively inhibited, in a dose-dependent manner
joint inflammation at lowest dose ([7]; 24 μg/kg): protected the animals against joint inflammation
joint swelling at highest dose ([7]; 200 μg/ml): again inhibited joint swelling
joint inflammation ([7]; CIA rats, overall): significantly inhibited
IL-6 production ([7]; CIA rats): reduced IL-6 production
swelling after termination of treatment ([7]; CIA rats): did not result in a flare-up of the swelling
oxidative burst (peritoneal macrophages; apocynin 10 mM 25 min before myelin and zymosan, controls 75%): about 5%
phagocytosis of myelin (peritoneal macrophages; rat peritoneal macrophages): dose-dependently inhibited
side effects [8]: no side effects
production of prostaglandin E2 (pulmonary macrophages): increases the production of prostaglandin E2
IC50 (U937 cells; Homo sapiens, U-937, read-out: IC50 (μg/ml), protective effect against TNF-induced DNA fragmentation): 64 µg/mL (≈ 385 µM)

More lines, now with the values ahead:

IC50 (μg/ml), protective effect against TNF-induced DNA fragmentation (U937 cells): 90 µg/mL (≈ 426 µM)
Structure (SMILES): COc1cc(C(C)=O)cc([N+](=O)[O-])c1O [Compound 2, 4-Hydroxy-3-methoxy-5-nitroacetophenone]

IC50 (μg/ml), protective effect against TNF-induced DNA fragmentation (U937 cells): 80 µg/mL
Structure (SMILES): COc1cc(C(C)=O)cc(N)c1O.Cl [Compound 3, 5-Amino-4-hydroxy-3-methoxyacetophenone hydrochloride]

IC50 (μg/ml), protective effect against TNF-induced DNA fragmentation (U937 cells): 37 µg/mL (≈ 166 µM)
potency compared with apocynin (from IC50 values) (U937 cells): more potent than apocynin
Structure (SMILES): COc1cc(C(C)=O)cc(NC(C)=O)c1O [Compound 4, 5-Acetoamido-4-hydroxy-3-methoxyacetophenone]
